Experimental data: the supplement of paper PMC11997997

Legend:
[1] = test system: murine bone marrow-derived macrophages; assay: area under cytotoxicity dose-response curve (AUC (% cytotoxicity x dose, relative)); higher = more cytotoxic; settings: duration: 6 days; dose range: 0.13-80 uM, 8 points
Procedure, shortened: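 An 8-point, 2.5-fold dilution series (final 80–0.13 μM) was applied for 6 days at 37 °C in 5% CO2 to primary murine bone marrow-derived macrophages plated in opaque 384-well plates. Promega's CellTiter-Glo luminescence assay measured viability, and percent cytotoxicity was normalised against vehicle and positive control wells. The area under the dose–response curve, worked out in GraphPad Prism version 10, is the reported cytotoxicity measure.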

[2] = test system: Mycobacterium tuberculosis CDC1551 (intracellular, in murine BMDM); assay: area under intracellular growth-inhibition dose-response curve (AUC (% inhibition x dose, relative)); higher = more potent; settings: duration: 6 days; dose range: 0.13-80 uM, 8 points
Procedure, shortened: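 Each value is an area under the growth-inhibition dose–response curve, calculated with GraphPad Prism. Infected primary murine bone marrow-derived macrophages, carrying luciferase-expressing M. tuberculosis CDC1551 at multiplicity of infection 1, were treated for 6 days with an 8-dose, 2.5-fold series (final 80–0.13 μM) in 384-well opaque plates. Readout was by Bright-Glo luciferin assay, normalised to a reference drug control and the lowest-concentration wells.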

SMILES | area under cytotoxicity dose-response curve [1] | area under intracellular growth-inhibition dose-response curve [2]
C/C=C/C=N\NC(=O)c1ccncc1 | 9.36 | 259
O=C(NCc1ccccc1)c1ccc(Br)o1 | 19.6 | 267
COc1ccc(Cl)cc1NC(=O)C(C)OC(=O)Cn1cc(C(F)(F)F)ccc1=O (configuration not stated) | 119 | 24.1
Cc1nnc(SCC2=C(C(=O)O)N3C(=O)C(NC(=O)Cn4nc(C(F)F)c(Cl)c4C)C3SC2)s1 (configuration not stated) | < 0 | 193
O=[N+]([O-])C(=C\Nc1ccccc1O)/C=N/c1ccccc1O | 3.94 | 57.2
C/C(=N\NC(N)=S)c1ccc(Cl)s1 | < 0 | 263
Nc1ccc(S(=O)(=O)Nc2cnc3ccccc3n2)cc1 | < 0 | 156
Cc1sc(N/N=C/C=C/c2ccccc2)nc1-c1ccccc1 | 16.1 | 268
CCc1ccc(NC(=O)NC2CCCCCCC2)cc1 | 85.4 | 120
O=C(N/N=C/C=C/c1cccc([N+](=O)[O-])c1)c1ccncc1 | 17.5 | 111
NC(=S)N/N=C/c1ccc(-c2cc(Cl)cc(Cl)c2)o1 | 41.6 | 230
CC1CCN(C(=O)C2COc3ccccc3O2)CC1 (configuration not stated) | < 0 | 265
COc1c(N2CCN(C(=S)NCc3ccccc3)C(C)C2)c(F)cc2c(=O)c(C(=O)O)cn(C3CC3)c12 (configuration not stated) | < 0 | 165
O=C(/C=C/c1cccs1)NCc1ccccc1 | 10.6 | 217
Nc1c2c(nc3ccn(Cc4ccccc4)c(=O)c13)CCC2 | 39.1 | 196
O=C(NCCc1ccc(F)cc1)NC12CC3CC(CC(C3)C1)C2 | 60.1 | 190

SMILES | area under cytotoxicity dose-response curve [1] | area under intracellular growth-inhibition dose-response curve [2]
CCCN(CCC)CC(O)Cn1cc(/C=C/C(=O)c2ccccc2)c2ccccc21 (configuration not stated) | 9.39 | 226
O=C(OCC(=O)c1ccc(Cl)cc1Cl)c1ccccn1 | 10.1 | 205
O=[N+]([O-])c1ccc(CN2CCN(c3ccccc3)CC2)o1 | 42.8 | 254
O=C(C=Cc1cccs1)c1ccc(Cl)s1 | 8.27 | 235
CC(=O)Nc1sc(N/N=C\c2ccc(O)cc2)nc1-c1cccs1 | 155 | 194
COc1cccc(OCCNC(=O)c2cc([N+](=O)[O-])cc([N+](=O)[O-])c2)c1 | 10.6 | 265
CC(C)Oc1ccc(C(=O)NC(=S)Nc2ccc(CN3CCOCC3)cc2)cc1 | 2.7 | 136
CCOc1ccc2oc(C(=O)OCC(=O)NCc3ccc(OC)cc3)c(C)c2c1 | < 0 | 58.1
CCSc1nnc(NC(=O)[C@H](C)N2C(=O)C3CC=CCC3C2=O)s1 (some centres not stated) | < 0 | 129
O=C(NCc1ccco1)c1cc([N+](=O)[O-])cc([N+](=O)[O-])c1 | 29.1 | 160
O=C(/C=C/c1cccs1)N1CCCCC1 | < 0 | 243
Cc1nnc(SCC2=C(C(=O)O)N3C(=O)C(NC(=O)COc4ccccc4)C3SC2)s1 (configuration not stated) | 73.9 | 151
CCCCC(=O)NCc1ccccc1Cl | 22.2 | 262
COc1c(N2CCN(C(=S)Nc3ccccc3F)C(C)C2)c(F)cc2c(=O)c(C(=O)O)cn(C3CC3)c12 (configuration not stated) | < 0 | 275
Cc1cc(/C=N/NC(N)=S)c(C)n1-c1ccc(Cl)cc1 | 44.8 | 220
